How the values were obtained:
Assay type in all cases: toxicity, cell-based
HEK-293T = assay: Incucyte cell viability with HEK293T; conditions: human, 10 µM, compound concentration 10 uM
Fibroblast = assay: Incucyte cell viability with human fibroblast; conditions: 10 µM, compound concentration 10 uM
U2OS = assay: Incucyte cell viability with U2OS; conditions: human, 10 µM, compound concentration 10 uM
[1] = 0 h, replicate number 1, timepoint 0 hours
[2] = 0 h, replicate number 2, timepoint 0 hours
[3] = 6 h, replicate number 1, timepoint 6 hours
[4] = 12 h, replicate number 1, timepoint 12 hours
[5] = 18 h, replicate number 1, timepoint 18 hours
[6] = 24 h, replicate number 1, timepoint 24 hours
[7] = 24 h, replicate number 2, timepoint 24 hours
[8] = 6 h, replicate number 2, timepoint 6 hours
[9] = 12 h, replicate number 2, timepoint 12 hours
[10] = 18 h, replicate number 2, timepoint 18 hours
Note: filed as whole numbers so only -1 and 0 and 1 occur.

| SMILES | Growth Rate (HEK-293T; [1]) | Growth Rate (HEK-293T; [2]) | Growth Rate (HEK-293T; [3]) | Growth Rate (HEK-293T; [4]) | Growth Rate (HEK-293T; [5]) | Growth Rate (HEK-293T; [6]) | Growth Rate (Fibroblast; [1]) | Growth Rate (Fibroblast; [8]) | Growth Rate (Fibroblast; [9]) | Growth Rate (Fibroblast; [10]) | Growth Rate (Fibroblast; [6]) | Growth Rate (U2OS; [1]) | Growth Rate (U2OS; [4]) | Growth Rate (U2OS; [5]) | Growth Rate (U2OS; [6]) | Growth Rate (U2OS; [8]) | Growth Rate (U2OS; [9]) | Growth Rate (Fibroblast; [4]) | Growth Rate (Fibroblast; [5]) | Growth Rate (U2OS; [7]) | also measured |
| --- | --- | --- | --- | --- | --- | --- | --- | --- | --- | --- | --- | --- | --- | --- | --- | --- | --- | --- | --- | --- | --- |
| C[C@H](c1ccc(F)cc1)N(Cc1ccc(Cl)c(C(=O)O)c1)C(=O)c1cnc2ccccc2c1 [PF-05257137] | 1 | 0 | 0 | 0 | 0 | 1 | 0 | 0 | 1 | 1 | 1 | 0 | 1 | 1 | 1 |  |  |  |  |  | Growth Rate (HEK-293T; [7]): 0 |
| C[S+]([O-])c1ccc(-c2nc(-c3ccncc3)c(-c3ccc(F)cc3)[nH]2)cc1 (configuration not stated) [SB-203580] | 0 |  | 0 | 0 | 0 | 0 | 0 | 0 | 1 | 1 |  |  |  | 1 | 1 | 0 | 1 |  |  |  | Growth Rate (Fibroblast; [7]): 1 |
| Cc1cc(F)c(C(=O)Nc2cccc(-c3nncn3C(C)C)n2)cc1-n1cnc(C2CC2)c1 [SELONSERTIB] |  | 1 | 0 | 0 | 0 | 0 | 0 |  |  |  | 1 | 0 | 0 | 0 | 1 |  |  | 1 | 1 | 0 | Growth Rate (U2OS; [3]): 0 |
| Cn1cnc2c(F)c(Nc3ccc(Br)cc3Cl)c(C(=O)NOCCO)cc21 [SELUMETINIB] | 0 | 1 |  |  |  | 1 | 0 |  |  |  | 1 | 1 | 0 | 0 | 0 |  |  |  |  |  | Growth Rate (HEK-293T; [9]): 1; Growth Rate (U2OS; [3]): 0 |
| C=C1/C(=C\C=C2/CCC[C@]3(C)[C@@H]([C@H](C)/C=C/C=C/C(O)(CC)CC)CC[C@@H]23)C[C@@H](O)C[C@@H]1O [SEOCALCITOL] | 0 |  | 1 | 0 | 0 | 0 | 0 | 0 | 0 | 1 | 1 |  | 1 | 1 | 1 | 0 |  |  |  | 0 | Growth Rate (HEK-293T; [8]): 0; Growth Rate (U2OS; [2]): 1; Growth Rate (U2OS; [10]): 0 |
| C[C@H](Cc1cc2c(c(C(N)=O)c1)N(CCCO)CC2)NCCOc1ccccc1OCC(F)(F)F [SILODOSIN] | 0 |  | 0 | 0 | 0 | 0 | 0 |  |  |  | 1 | 0 | 1 | 1 | 1 | 0 | 0 | 0 | 0 | 0 | Growth Rate (Fibroblast; [3]): 0; Growth Rate (Fibroblast; [7]): 0 |
| O=S(=O)(c1ccccc1)N(CC(F)(F)F)c1ccc(C(O)(C(F)(F)F)C(F)(F)F)cc1 [T091317] | 0 |  | 0 | 0 | 0 | 0 | 0 |  |  |  | 0 | 0 | 1 | 1 | 1 |  |  | 0 | 0 |  | Growth Rate (HEK-293T; [8]): 1; Growth Rate (Fibroblast; [3]): 0 |
| CNC(=NCCSCc1csc(N=C(N)N)n1)NC#N [TIOTIDINE] | 1 | 0 | 0 | 1 | 0 | 0 | 0 | 0 |  |  | 0 | 0 | 1 | 0 | 1 | 0 | 0 | 0 | 0 |  | Growth Rate (HEK-293T; [9]): 0; Growth Rate (Fibroblast; [3]): 1; Growth Rate (U2OS; [10]): 1 |

Source: ChEMBL document CHEMBL4689842, “EUbOPEN Chemogenomics Library wave 1” (2021)
